Reference: publication PMC11876601 (Molecular Systems Biology, 2025)
Where “and” joins values, the source holds several entries; their conditions need not be identical. Identical values can stand only once. Like-named read-outs stand apart in the source and are kept apart here.

System: AsPC-1 cells
Experiment: Cell proliferation assay, chemodrug + ATR inhibitor (Incucyte confluence, 72 h);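 also: underlying read-out for every value is AsPC-1 confluence after 72 h incubation at 37 °C and 5% CO2, divided by that well's starting confluence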
Settings: for EC50: Homo sapiens; for Ratio: Response / Response vehicle (mean)
[1] = AsPC-1, Experiment GEM (no ATRi), single replicates R1-R3, listed as 5-FU
[2] = AsPC-1, Experiment GEM+ATRi_dose1, single replicates R1-R3, listed as 5-FU
[3] = AsPC-1, Experiment GEM+ATRi_dose2, single replicates R1-R3, listed as 5-FU
[4] = AsPC-1, Experiment GEM+ATRi_dose3, single replicates R1-R3, listed as 5-FU
[5] = Drug 0 nM + ATRi 3 nM (ATRi alone, GEM+ATRi_dose1 series), replicates R1-R3, listed as 5-FU
[6] = Drug 0 nM + ATRi 10 nM (ATRi alone, GEM+ATRi_dose2 series), replicates R1-R3, listed as 5-FU
[7] = Drug 0 nM + ATRi 30 nM (ATRi alone, GEM+ATRi_dose3 series), replicates R1-R3, listed as 5-FU
[8] = Drug 1 nM + ATRi 3 nM (GEM+ATRi_dose1), replicates R1-R3, listed as 5-FU
[9] = Drug 1 nM + ATRi 10 nM (GEM+ATRi_dose2), replicates R1-R3, listed as 5-FU
[10] = Drug 1 nM + ATRi 30 nM (GEM+ATRi_dose3), replicates R1-R3, listed as 5-FU
[11] = Drug 3 nM + ATRi 3 nM (GEM+ATRi_dose1), replicates R1-R3, listed as 5-FU
[12] = Drug 3 nM + ATRi 30 nM (GEM+ATRi_dose3), replicates R1-R3, listed as 5-FU
[13] = Drug 3 nM alone, ATRi 0 nM (experiment 'GEM'), replicates R1-R3, listed as 5-FU
[14] = Drug 10 nM + ATRi 3 nM (GEM+ATRi_dose1), replicates R1-R3, listed as 5-FU
[15] = Drug 10 nM + ATRi 10 nM (GEM+ATRi_dose2), replicates R1-R3, listed as 5-FU
[16] = Drug 10 nM + ATRi 30 nM (GEM+ATRi_dose3), replicates R1-R3, listed as 5-FU
[17] = Drug 10 nM alone, ATRi 0 nM (experiment 'GEM'), replicates R1-R3, listed as 5-FU
[18] = Drug 30 nM + ATRi 3 nM (GEM+ATRi_dose1), replicates R1-R3, listed as 5-FU
[19] = Drug 30 nM + ATRi 10 nM (GEM+ATRi_dose2), replicates R1-R3, listed as 5-FU
[20] = Drug 30 nM + ATRi 30 nM (GEM+ATRi_dose3), replicates R1-R3, listed as 5-FU
[21] = Drug 100 nM + ATRi 3 nM (GEM+ATRi_dose1), replicates R1-R3
[22] = Drug 100 nM + ATRi 10 nM (GEM+ATRi_dose2), replicates R1-R3, listed as 5-FU
[23] = Drug 100 nM + ATRi 30 nM (GEM+ATRi_dose3), replicates R1-R3, listed as 5-FU
[24] = Drug 100 nM alone, ATRi 0 nM (experiment 'GEM'), replicates R1-R3, listed as 5-FU
[25] = Drug 300 nM + ATRi 3 nM (GEM+ATRi_dose1), replicates R1-R3
[26] = Drug 300 nM + ATRi 10 nM (GEM+ATRi_dose2), replicates R1-R3, listed as 5-FU
[27] = Drug 300 nM + ATRi 30 nM (GEM+ATRi_dose3), replicates R1-R3, listed as 5-FU
[28] = Drug 300 nM alone, ATRi 0 nM (experiment 'GEM'), replicates R1-R3, listed as 5-FU
[29] = Drug 1000 nM + ATRi 3 nM (GEM+ATRi_dose1), replicates R1-R3
[30] = Drug 1000 nM + ATRi 30 nM (GEM+ATRi_dose3), replicates R1-R3, listed as 5-FU
[31] = Drug 1000 nM alone, ATRi 0 nM (experiment 'GEM'), replicates R1-R3, listed as 5-FU
[32] = Drug 3000 nM + ATRi 3 nM (GEM+ATRi_dose1), replicates R1-R3
[33] = Drug 3000 nM + ATRi 10 nM (GEM+ATRi_dose2), replicates R1-R3, listed as 5-FU
[34] = Drug 3000 nM + ATRi 30 nM (GEM+ATRi_dose3), replicates R1-R3, listed as 5-FU
[35] = Drug 3000 nM alone, ATRi 0 nM (experiment 'GEM'), replicates R1-R3, listed as 5-FU
[36] = drug 100 nM + ATRi 3 nM, listed as 5-FU
[37] = drug 300 nM + ATRi 3 nM, listed as 5-FU
[38] = drug 1000 nM + ATRi 3 nM, listed as 5-FU
[39] = drug 3000 nM + ATRi 3 nM, listed as 5-FU

Protocol: Cells were seeded at 5000 cells/well into 96-well flat bottom plates (Eppendorf) and allowed to attach overnight. […] Cells were incubated for 72 h at 37 °C and 5% CO2. Cell confluence readouts at 72 h were either normalized to their initial confluence using the Incucyte software (AsPC-1) or used without prior normalization (all others). […] Each experiment was performed in triplicates, the data was plotted as mean ± standard deviation (s.d.).

## O=c1[nH]cc(F)c(=O)[nH]1 [5-fluorouracil]
[1]
  Curve bottom: 1.02 and 1.01 and 1.04
  Curve slope: 1.53 and 1.20 and 1.02
  Curve top: 0.52 and 0.45 and 0.53
[2]
  Curve bottom: 1.03 and 1.04
  Curve slope: 1.17 and 1.72 and 2.53
  Curve top: 0.34 and 0.38 and 0.50
AsPC-1, Experiment GEM+ATRi_dose2, single replicates R1-R3
  Curve bottom: 1.02
[3]
  Curve slope: 2.12 and 2.47 and 2.30
  Curve top: 0.44 and 0.42 and 0.41
[4]
  Curve bottom: 0.92 and 0.93 and 0.96
  Curve slope: 7.78 and 7.99 and 4.74
  Curve top: 0.42 and 0.41
[5]
  Response: 93.23 and 93.25
  Ratio: 1.02 and 1.04
[6]
  Response: 93.23 and 93.25
  Ratio: 1.02 and 1.04
[7]
  Response: 86.00 and 86.93
  Ratio: 0.94 and 0.97
[8]
  Response: 93.84 and 90.46
  Ratio: 1.03 and 1.01
[9]
  Response: 92.14 and 89.28
  Ratio: 1.01 and 1.00
[10]
  Response: 85.34 and 86.33
  Ratio: 0.94 and 0.97
Drug 1 nM alone, ATRi 0 nM (experiment 'GEM'), replicates R1-R3, listed as 5-FU
  Response: 94.45
[11]
  Response: 93.43 and 94.40
  Ratio: 1.03 and 1.06
Drug 3 nM + ATRi 10 nM (GEM+ATRi_dose2), replicates R1-R3, listed as 5-FU
  Response: 92.25 and 90.36
[12]
  Response: 84.22 and 84.05
  Ratio: 0.92 and 0.94
[13]
  Response: 90.32
  Ratio: 0.99 and 1.05
[14]
  Response: 92.50 and 91.39
  Ratio: 1.01 and 1.02
[15]
  Response: 91.53 and 89.96
  Ratio: 1.00 and 1.01
[16]
  Response: 83.67 and 82.94
  Ratio: 0.92 and 0.93
[17]
  Response: 89.98 and 90.52
  Ratio: 0.99 and 1.01
[18]
  Response: 93.40 and 92.15
  Ratio: 1.02 and 1.03
[19]
  Response: 91.74 and 91.80
  Ratio: 1.01 and 1.03
[20]
  Response: 86.01 and 86.29
  Ratio: 0.94 and 0.97
Drug 30 nM alone, ATRi 0 nM (experiment 'GEM'), replicates R1-R3, listed as 5-FU
  Response: 91.55 and 89.05
[21]
  Response: 92.03
  Ratio: 1.03
[22]
  Response: 90.88 and 90.27
  Ratio: 1.00 and 1.01
[23]
  Response: 85.31 and 85.49
  Ratio: 0.94 and 0.96
[24]
  Response: 92.05 and 91.30
  Ratio: 1.01 and 1.02
[25]
  Response: 79.74
  Ratio: 0.89
[26]
  Response: 62.48 and 67.47
  Ratio: 0.69 and 0.76
[27]
  Response: 51.19 and 52.50
  Ratio: 0.56 and 0.59
[28]
  Response: 82.78 and 83.05
  Ratio: 0.91 and 0.93
[29]
  Response: 50.06
  Ratio: 0.56
Drug 1000 nM + ATRi 10 nM (GEM+ATRi_dose2), replicates R1-R3, listed as 5-FU
  Response: 44.01 and 42.89
[30]
  Response: 38.74 and 41.39
  Ratio: 0.43 and 0.46
[31]
  Response: 71.08 and 72.31
  Ratio: 0.78 and 0.81
[32]
  Response: 44.54
  Ratio: 0.50
[33]
  Response: 35.64 and 36.17
  Ratio: 0.39 and 0.41
[34]
  Response: 35.72 and 32.91
  Ratio: 0.39 and 0.37
[35]
  Response: 54.65 and 60.00
  Ratio: 0.60 and 0.67
ASPC1, 72 h, AsPC-1, Experiment GEM (no ATRi), single replicates R1-R3
  EC50: 1020 nM
ASPC1, 72 h, read-out: EC50 mean [nM], AsPC-1, Experiment GEM (no ATRi), mean of R1-R3, repeated in each replicate line
  EC50: 1190 nM
ASPC1, 72 h, read-out: pEC50, AsPC-1 (converted), Experiment GEM (no ATRi), single replicates R1-R3
  EC50: 1020 nM
ASPC1, read-out: EC50 mean [nM], AsPC-1, Experiment GEM (no ATRi), mean of R1-R3, repeated in each replicate line
  EC50: 1190 nM
ASPC1, read-out: EC50 mean [nM], AsPC-1, Experiment GEM+ATRi_dose1, mean of R1-R3, repeated in each replicate line
  EC50: 619 nM
ASPC1, read-out: EC50 mean [nM], AsPC-1, Experiment GEM+ATRi_dose2, mean of R1-R3, repeated in each replicate line
  EC50: 326 nM
ASPC1, read-out: EC50 mean [nM], AsPC-1, Experiment GEM+ATRi_dose3, mean of R1-R3, repeated in each replicate line
  EC50: 266 nM
Drug 1 nM alone, ATRi 0 nM (experiment 'GEM'), replicates R1-R3
  Ratio: 1.04
Drug 3 nM + ATRi 10 nM (GEM+ATRi_dose2), replicates R1-R3
  Ratio: 1.01
Drug 30 nM alone, ATRi 0 nM (experiment 'GEM'), replicates R1-R3
  Ratio: 1.00
Drug 1000 nM + ATRi 10 nM (GEM+ATRi_dose2), replicates R1-R3
  Ratio: 0.48
Drug 1 nM + ATRi 3 nM
  Ratio: 1.05
  Response: 97.06
Drug 1 nM + ATRi 10 nM
  Ratio: 1.03
  Response: 94.90
Drug 1 nM + ATRi 30 nM
  Ratio: 0.93
  Response: 85.74
Drug 1 nM alone (ATRi 0 nM)
  Ratio: 1.02
  Response: 94.29
Drug 3 nM + ATRi 3 nM
  Ratio: 1.01
  Response: 93.28
Drug 3 nM + ATRi 10 nM
  Ratio: 0.98
  Response: 90.39
Drug 3 nM + ATRi 30 nM
  Ratio: 0.92
  Response: 84.88
Drug 3 nM alone (ATRi 0 nM)
  Ratio: 1.00
  Response: 92.53
Drug 10 nM + ATRi 3 nM
  Ratio: 1.01
  Response: 93.05
Drug 10 nM + ATRi 10 nM
  Ratio: 1.01
  Response: 92.81
Drug 10 nM + ATRi 30 nM
  Ratio: 0.91
  Response: 83.72
Drug 10 nM alone (ATRi 0 nM)
  Ratio: 1.02
  Response: 93.59
Drug 30 nM + ATRi 3 nM
  Ratio: 1.02
  Response: 93.52
Drug 30 nM + ATRi 10 nM
  Ratio: 1.00
  Response: 91.78
Drug 30 nM + ATRi 30 nM
  Ratio: 0.94
  Response: 86.53
Drug 30 nM alone (ATRi 0 nM)
  Ratio: 1.02
  Response: 94.07
[36]
  Ratio: 1.02 and 1.04
  Response: 94.22 and 94.47
Drug 100 nM + ATRi 10 nM
  Ratio: 1.01
  Response: 93.45
Drug 100 nM + ATRi 30 nM
  Ratio: 0.92
  Response: 85.12
Drug 100 nM alone (ATRi 0 nM)
  Ratio: 1.03
  Response: 94.67
[37]
  Ratio: 0.84 and 0.85
  Response: 77.35 and 77.27
Drug 300 nM + ATRi 10 nM
  Ratio: 0.76
  Response: 69.87
Drug 300 nM + ATRi 30 nM
  Ratio: 0.58
  Response: 53.83
Drug 300 nM alone (ATRi 0 nM)
  Ratio: 0.95
  Response: 87.11
[38]
  Ratio: 0.66 and 0.57
  Response: 61.14 and 51.57
Drug 1000 nM + ATRi 10 nM
  Ratio: 0.52
  Response: 47.87
Drug 1000 nM + ATRi 30 nM
  Ratio: 0.43
  Response: 39.31
Drug 1000 nM alone (ATRi 0 nM)
  Ratio: 0.78
  Response: 71.77
[39]
  Ratio: 0.46 and 0.41
  Response: 42.27 and 37.14
Drug 3000 nM + ATRi 10 nM
  Ratio: 0.43
  Response: 39.36
Drug 3000 nM + ATRi 30 nM
  Ratio: 0.42
  Response: 38.38
Drug 3000 nM alone (ATRi 0 nM)
  Ratio: 0.60
  Response: 55.50
Chemodrug + three sub-EC50 doses of Elimusertib
  sensitization of AsPC-1 cells to the chemodrug by Elimusertib: sensitized
